# Data from patent US6905841B2, “Enzymatic substrates for detecting Pseudomonas aeruginas” (Biomerieux S.A., priority 1999, dated 2005).
# Read-outs that look alike come from different tables or passages of the source.
# Columns and labels:
# β-alanine aminopeptidase [1] = settings: Citrobacter koseri; 1 strain tested; read after 22 to 24 hours
# β-alanine aminopeptidase [2] = settings: Enterobacter aerogenes; 2 strains tested; read after 22 to 24 hours
# β-alanine aminopeptidase [3] = settings: Proteus mirabilis; 2 strains tested; read after 22 to 24 hours
# β-alanine aminopeptidase [4] = test: APIZYM-type test strips with β-alanyl-β-naphthylamide; format: cell-based; settings: Klebsiella ozaenae; five strains
# β-alanine aminopeptidase [5] = test: as above; format: cell-based; settings: Pseudomonas stutzeri; five strains
# β-alanine aminopeptidase [6] = test: as above; format: cell-based; settings: Pseudomonas luteola; five strains
# β-alanine aminopeptidase [7] = test: as above; format: cell-based; settings: Vibrio parahaemolyticus; 4 strains
# β-alanine aminopeptidase [8] = test: as above; format: cell-based; settings: Pasteurella gallinarum; 1 strain
# β-alanine aminopeptidase [9] = test: as above; format: cell-based; settings: Pasteurella aerogenes; five strains
# β-alanine aminopeptidase [10] = test: as above; format: cell-based; settings: Moraxella lacunata; 4 strains
# β-alanine aminopeptidase [11] = test: as above; format: cell-based; settings: Moraxella non liquefaciens; 13 strains
# β-alanine aminopeptidase [12] = test: as above; format: cell-based; settings: Moraxella osloensis; 18 strains
# β-alanine aminopeptidase [13] = test: as above; format: cell-based; settings: Serratia liquefaciens; five strains
Compound,Number of negative results (β-alanine aminopeptidase [1]),Number positive results (β-alanine aminopeptidase [1]),Number of negative results (β-alanine aminopeptidase [2]),Number positive results (β-alanine aminopeptidase [2]),Number of negative results (β-alanine aminopeptidase [3]),Number positive results (β-alanine aminopeptidase [3]),"β-alanine aminopeptidase activity, result (β-alanine aminopeptidase [4])","β-alanine aminopeptidase activity, result (β-alanine aminopeptidase [5])","β-alanine aminopeptidase activity, result (β-alanine aminopeptidase [6])","β-alanine aminopeptidase activity, result (β-alanine aminopeptidase [7])","β-alanine aminopeptidase activity, result (β-alanine aminopeptidase [8])","β-alanine aminopeptidase activity, result (β-alanine aminopeptidase [9])","β-alanine aminopeptidase activity, result (β-alanine aminopeptidase [10])","β-alanine aminopeptidase activity, result (β-alanine aminopeptidase [11])","β-alanine aminopeptidase activity, result (β-alanine aminopeptidase [12])","β-alanine aminopeptidase activity, result (β-alanine aminopeptidase [13])"
NCCC(=O)c1c(N)cc(Cl)c(O)c1Cl,1,0,2,0,2,0,–,–,–,–,–,–,–,–,–,–
β-alanyl-β-naphthylamide,–,–,–,–,–,–,negative,negative,negative,negative,negative,negative,negative,negative,negative,positive
